Measured values: patent US20220411367A1, “ARYLMETHYLENE HETEROCYCLIC COMPOUNDS AS KV1.3 POTASSIUM SHAKER CHANNEL BLOCKERS” (D. E. Shaw Research, LLC, priority 2019, published 2022)
Where two headings read alike, the source gives them in different places.

Tests used:
hERG channel = biological target: T1, hERG channel (Homo sapiens, UniProt Q12809); test: hERG electrophysiology, automated whole-cell patch clamp (Patchliner); assay type: cell-based; settings: CHO-K1 cells stably expressing hERG, whole cell current inhibition, read-out: hERG IC50
T1 construct: expressed in transfected cells
Procedure: (§1) All compounds were dissolved in DMSO at 30 mM.
The pulse frequency was 0.3 Hz.
Data were sampled at 10 kHz without filtering.

Kv1.3 potassium channel = biological target: T2, Kv1.3 potassium channel (Homo sapiens, UniProt P22001); test: Kv1.3 potassium channel blocker activity, automated whole-cell patch clamp (Patchliner); assay type: cell-based; settings: CHO-K1 cells stably expressing Kv1.3; whole cell current inhibition; read-out: Kvl.3 IC50
T2 construct: expressed in transfected cells
Procedure: This assay is used to evaluate the disclosed compounds' activities as Kv1.3 potassium channel blockers.
CHO-K1 cells stably expressing Kv1.3 were grown in DMEM containing 10% heat-inactivated FBS, 1 mM Sodium Pyruvate, 2 mM L-Glutamine and G418 (500 μg/ml).
as §1
The currents were evoked by applying 100 ms depolarizing pulses from −90 mV (holding potential) to +40 mV were applied with 0.1 Hz frequency. […] 10 second breaks were used between pulse trains (see Table A below).
Data were sampled at 10 kHz without filtering. Passive leak currents were subtracted online using a P/4 procedure (HEKA Elektronik Dr. Schulze GmbH). […] Total compound incubation time before the next pulse train was not longer than 10 seconds. Peak current inhibition was observed during compound equilibration.

T1 sequence (Q12809 whole entry): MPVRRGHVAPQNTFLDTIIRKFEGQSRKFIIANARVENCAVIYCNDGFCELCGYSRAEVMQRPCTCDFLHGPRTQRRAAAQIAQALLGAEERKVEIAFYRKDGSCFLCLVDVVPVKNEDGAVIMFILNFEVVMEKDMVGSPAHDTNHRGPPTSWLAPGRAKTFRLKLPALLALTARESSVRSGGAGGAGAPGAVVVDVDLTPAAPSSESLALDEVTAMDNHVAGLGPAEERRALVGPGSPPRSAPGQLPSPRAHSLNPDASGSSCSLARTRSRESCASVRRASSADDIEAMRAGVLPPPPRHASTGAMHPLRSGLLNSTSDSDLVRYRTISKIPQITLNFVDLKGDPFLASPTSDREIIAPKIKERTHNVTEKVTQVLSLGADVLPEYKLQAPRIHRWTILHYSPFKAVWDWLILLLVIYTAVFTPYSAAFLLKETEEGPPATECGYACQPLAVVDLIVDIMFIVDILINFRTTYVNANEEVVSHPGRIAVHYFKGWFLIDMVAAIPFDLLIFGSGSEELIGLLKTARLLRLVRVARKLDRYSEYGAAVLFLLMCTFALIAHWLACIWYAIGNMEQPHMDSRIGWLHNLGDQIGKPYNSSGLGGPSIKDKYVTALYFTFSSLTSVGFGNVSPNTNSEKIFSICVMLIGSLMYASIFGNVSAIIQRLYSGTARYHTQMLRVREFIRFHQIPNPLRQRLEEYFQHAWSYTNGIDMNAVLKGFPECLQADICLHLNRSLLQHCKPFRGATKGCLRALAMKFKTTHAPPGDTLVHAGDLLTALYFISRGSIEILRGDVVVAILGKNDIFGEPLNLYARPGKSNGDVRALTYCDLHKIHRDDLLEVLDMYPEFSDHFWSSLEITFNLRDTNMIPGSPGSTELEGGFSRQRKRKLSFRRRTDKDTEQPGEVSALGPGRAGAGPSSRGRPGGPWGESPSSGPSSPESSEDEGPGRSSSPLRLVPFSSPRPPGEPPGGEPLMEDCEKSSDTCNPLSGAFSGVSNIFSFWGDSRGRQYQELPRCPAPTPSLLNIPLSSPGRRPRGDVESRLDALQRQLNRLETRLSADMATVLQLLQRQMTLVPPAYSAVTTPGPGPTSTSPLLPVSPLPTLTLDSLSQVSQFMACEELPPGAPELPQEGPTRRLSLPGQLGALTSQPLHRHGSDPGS
T2 sequence (P22001 whole entry): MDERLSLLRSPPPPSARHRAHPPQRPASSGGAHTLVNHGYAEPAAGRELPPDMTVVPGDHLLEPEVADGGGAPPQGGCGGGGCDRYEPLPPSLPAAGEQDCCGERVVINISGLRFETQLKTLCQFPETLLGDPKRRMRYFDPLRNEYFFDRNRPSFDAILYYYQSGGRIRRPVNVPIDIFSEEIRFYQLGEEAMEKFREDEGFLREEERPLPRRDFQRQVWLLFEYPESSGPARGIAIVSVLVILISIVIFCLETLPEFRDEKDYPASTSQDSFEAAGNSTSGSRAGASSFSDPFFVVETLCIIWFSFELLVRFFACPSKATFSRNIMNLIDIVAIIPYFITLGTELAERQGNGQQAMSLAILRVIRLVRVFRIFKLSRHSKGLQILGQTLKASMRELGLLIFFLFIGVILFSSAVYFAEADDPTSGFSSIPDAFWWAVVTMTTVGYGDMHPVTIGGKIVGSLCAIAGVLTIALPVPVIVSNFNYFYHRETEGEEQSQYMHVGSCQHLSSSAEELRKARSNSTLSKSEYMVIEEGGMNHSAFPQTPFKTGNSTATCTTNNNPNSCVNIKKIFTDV

IC50 (Kv1.3 potassium channel) [µM] | SMILES | IC50 (hERG channel) [µM] | IC50 (hERG channel; human, pH 7.4) [µM]
< 1 | Oc1cc(Cl)c(Cl)cc1CN1CCC(C2CCOCC2)CC1 [Compound 20, 4,5-dichloro-2-[[4-(oxan-4-yl)piperidin-1-yl]methyl]phenol] | < 30 | –
< 10 | CCC(c1cc(Cl)c(Cl)cc1O)N1CCC(CO)CC1 (stereo not drawn) [Compound 18, 4,5-dichloro-2-[1-[4-(hydroxymethyl)piperidin-1-yl]propyl]phenol] | < 30 | –
< 10 | OCC1CN(Cc2cc(Cl)c(Cl)cc2O)CCO1 (stereo not drawn) [Compound 52, 4,5-dichloro-2-[[2-(hydroxymethyl)morpholin-4-yl]methyl]phenol] | – | 30
< 10 | CN(C)C(=O)C1CCN(Cc2cc(Cl)c(Cl)cc2O)CC1 [Compound 66, 1-(4,5-dichloro-2-hydroxybenzyl)-N,N-dimethylpiperidine-4-carboxamide] | < 30 | –
< 10 | CC(=O)NCC1(O)CCN(Cc2cc(Cl)c(Cl)cc2O)CC1 [Compound 8, N-([1-[(4,5-dichloro-2-hydroxyphenyl)methyl]-4-hydroxypiperidin-4-yl]methyl)acetamide] | – | –
< 10 | Oc1cc(Cl)c(Cl)cc1CN1CCC(C2COC2)CC1 [Compound 42, 4,5-dichloro-2-[[4-(oxetan-3-yl)piperidin-1-yl]methyl]phenol] | < 30 | –
< 1 | OCC1CCN(Cc2cc(Br)c(Br)cc2O)CC1 [Compound 60, 4,5-dibromo-2-((4-(hydroxymethyl)piperidin-1-yl)methyl)phenol] | < 30 | –
< 10 | OCC1CN(Cc2cc(Cl)c(Cl)cc2O)CCN1 (stereo not drawn) [Compound 47, 4,5-dichloro-2-((3-(hydroxymethyl)piperazin-1-yl)methyl)phenol] | – | –
< 10 | COC(=O)C1CC(CO)CCN1Cc1cc(Cl)c(Cl)cc1O (stereo not drawn) [Compound 1, methyl 1-[(4,5-dichloro-2-hydroxyphenyl)methyl]-4-(hydroxymethyl)piperidine-2-carboxylate] | – | –
< 10 | O=C1CCOC12CCN(Cc1cc(Cl)c(Cl)cc1O)CC2 [Compound 33, 8-[(4,5-dichloro-2-hydroxyphenyl)methyl]-1-oxa-8-azaspiro[4.5]decan-4-one] | – | –
< 10 | OC[C@@H]1CCN(Cc2cc(Cl)c(Cl)cc2O)[C@H](c2ccccc2)C1 (relative stereo) [Compound 10, 4,5-dichloro-2-(((2S,4R)-rel-4-(hydroxymethyl)-2-phenylpiperidin-1-yl)methyl)phenol] | – | –
< 10 | Oc1cc(Cl)c(Cl)cc1CN1CCC(n2cnnc2)CC1 [Compound 38, 4,5-dichloro-2-[[4-(4H-1,2,4-triazol-4-yl)piperidin-1-yl]methyl]phenol] | – | –
< 10 | CC(C)CC(c1cc(Cl)c(Cl)cc1O)N1CCC(CO)CC1 (stereo not drawn) [Compound 23, 4,5-dichloro-2-[1-[4-(hydroxymethyl)piperidin-1-yl]-3-methylbutyl]phenol] | – | –

Continued, molecule first:

SMILES | IC50 (Kv1.3 potassium channel) [µM] | IC50 (hERG channel) [µM] | IC50 (hERG channel; human, pH 7.4) [µM]
OCC1CCN(Cc2cc(Cl)c(Cl)cc2O)CC1 [Compound 65, 4,5-dichloro-2-((4-(hydroxymethyl)piperidin-1-yl)methyl)phenol] | < 10 | < 30 | –
O=C1CCC2(CCN1)CCN(Cc1cc(Cl)c(Cl)cc1O)CC2 [Compound 59, 3-(4,5-dichloro-2-hydroxybenzyl)-3,9-diazaspiro[5.6]dodecan-10-one] | < 10 | – | –
CC(C)(O)C1CCN(Cc2cc(Cl)c(Cl)cc2O)CC1 [Compound 50, 4,5-dichloro-2-[[4-(2-hydroxypropan-2-yl)piperidin-1-yl]methyl]phenol] | < 10 | < 30 | –
OCC1CN(Cc2cc(Cl)c(Cl)cc2O)C1 [Compound 32, 4,5-dichloro-2-[[3-(hydroxymethyl)azetidin-1-yl]methyl]phenol] | < 10 | < 30 | –
Cc1cc(O)c(CN2CCC(CO)CC2)cc1C [Compound 16, 2-[[4-(hydroxymethyl)piperidin-1-yl]methyl]-4,5-dimethylphenol] | < 10 | – | –
Oc1cc(Cl)c(Cl)cc1CN1CCC(O)(O)CC1 [Compound 37, 1-(4,5-dichloro-2-hydroxybenzyl)piperidine-4,4-diol trifluoroacetic acid] | < 10 | – | –
NC(=O)C1CCN(Cc2cc(Cl)c(Cl)cc2O)CC1 [Compound 62, l-(4,5-dichloro-2-hydroxybenzyl) piperidine-4-carboxamide] | < 10 | < 30 | –
OCCC1CCN(Cc2cc(Cl)c(Cl)cc2O)CC1 [Compound 39, 4,5-dichloro-2-((4-(2-hydroxyethyl)piperidin-1-yl)methyl)phenol] | < 10 | < 30 | –
NCC1CCN(Cc2cc(Cl)c(Cl)cc2O)CC1 [Compound 61, 2-((4-(aminomethyl)piperidin-1-yl)methyl)-4,5-dichlorophenol] | < 1 | < 30 | –
Cc1cc(O)c(CN2CCC(CO)CC2)cc1Cl [Compound 19, 4-chloro-2-[[4-(hydroxymethyl)piperidin-1-yl]methyl]-5-methylphenol] | < 1 | > 30 | –
Oc1cc(Cl)c(Cl)cc1CN1CCc2[nH]ncc2C1 [Compound 25, 4,5-dichloro-2-((6,7-dihydro-1H-pyrazolo[4,3-c]pyridin-5(4H)-yl)methyl)phenol] | < 10 | < 30 | –
O=C(N1CCCC1)C1(CO)CCN(Cc2cc(Cl)c(Cl)cc2O)CC1 [Compound 6, 4,5-dichloro-2-[[4-(hydroxymethyl)-4-[(pyrrolidin-1-yl)carbonyl]piperidin-1-yl]methyl]phenol] | < 10 | – | –
OCC1(c2ccccc2)CCN(Cc2cc(Cl)c(Cl)cc2O)CC1 [Compound 22, 4,5-dichloro-2-[[4-(hydroxymethyl)-4-phenylpiperidin-1-yl]methyl]phenol] | < 1 | < 30 | –
O=C(O)CC1CCN(Cc2cc(Cl)c(Cl)cc2O)CC1 [Compound 28, 2-(1-(4,5-dichloro-2-hydroxybenzyl)piperidin-4-yl)acetic acid] | < 10 | – | –
OCC1CCN(C(CO)c2cc(Cl)c(Cl)cc2O)CC1 (stereo not drawn) [Compound 15, 4,5-dichloro-2-[2-hydroxy-1-[4-(hydroxymethyl)piperidin-1-yl]ethyl]phenol] | < 10 | – | –
C=CC(=O)NCC1(CO)CCN(Cc2cc(Cl)c(Cl)cc2O)CC1 [Compound 7, N-([1-[(4,5-dichloro-2-hydroxyphenyl)methyl]-4-(hydroxymethyl)piperidin-4-yl]methyl)prop-2-enamide] | < 1 | – | –
O=C(NCC1(CO)CCN(Cc2cc(Cl)c(Cl)cc2O)CC1)C(F)(F)F [Compound 13, N-([1-[(4,5-dichloro-2-hydroxyphenyl)methyl]-4-(hydroxymethyl)piperidin-4-yl]methyl)-2,2,2-trifluoroacetamide] | < 1 | – | –
CS(=O)(=O)C1CCN(Cc2cc(Cl)c(Cl)cc2O)CC1 [Compound 41, 4,5-dichloro-2-((4-(methylsulfonyl)piperidin-1-yl)methyl)phenol] | < 10 | – | –
Cc1cc(CN2CCC(CO)CC2)c(O)cc1Cl [Compound 17, 5-chloro-2-[[4-(hydroxymethyl)piperidin-1-yl]methyl]-4-methylphenol] | < 10 | – | –
Oc1cc(Cl)c(Cl)cc1CN1CCn2cnnc2C1 [Compound 43, 4,5-dichloro-2-[5H,6H,7H,8H-[1,2,4]triazolo[4,3-a]pyrazin-7-ylmethyl]phenol] | < 10 | – | –
OC[C@@H]1[C@H]2CN(Cc3cc(Cl)c(Cl)cc3O)C[C@@H]12 [Compound 36, 4,5-dichloro-2-(((1R,5S,6R)-6-(hydroxymethyl)-3-azabicyclo[3.1.0]hexan-3-yl)methyl)phenol] | < 10 | – | –
OC[C@@H]1CCN(Cc2cc(Cl)c(Cl)cc2O)[C@@H](c2ccccc2)C1 (relative stereo) [Compound 11, 4,5-dichloro-2-(((2R,4R)-rel-4-(hydroxymethyl)-2-phenylpiperidin-1-yl)methyl)phenol] | < 10 | – | –
OCC1CCN(Cc2cc(Cl)c(Cl)cc2O)C(CO)C1 (stereo not drawn) [Compound 2, (1-(4,5-dichloro-2-hydroxybenzyl)piperidine-2,4-diyl)dimethanol] | < 10 | – | –
Oc1cc(Cl)c(Cl)cc1CN1CCC2(CC1)OCCO2 [Compound 35, 4,5-dichloro-2-[1,4-dioxa-8-azaspiro[4.5]decan-8-ylmethyl]phenol trifluoroacetic acid] | < 10 | – | –
NCC(c1cc(Cl)c(Cl)cc1O)N1CCC(CO)CC1 (stereo not drawn) [Compound 4, 2-[2-amino-1-[4-(hydroxymethyl)piperidin-1-yl]ethyl]-4,5-dichlorophenol] | < 10 | – | –
OCC1(F)CCN(Cc2cc(Cl)c(Cl)cc2O)CC1 [Compound 31, 4,5-dichloro-2-[[4-fluoro-4-(hydroxymethyl)piperidin-l-yl]methyl]phenol] | < 10 | – | –
OCC1CCCCN1Cc1cc(Cl)c(Cl)cc1O (stereo not drawn) [Compound 34, 4,5-dichloro-2-[[2-(hydroxymethyl)piperidin-1-yl]methyl]phenol] | < 10 | – | –
C[C@@H]1C[C@@H](CO)CCN1Cc1cc(Cl)c(Cl)cc1O (relative stereo) [Compound 24, 4,5-dichloro-2-(((2R,4S)-rel-4-(hydroxymethyl)-2-methylpiperidin-1-yl)methyl)phenol] | < 10 | – | –
CC(c1cc(Cl)c(Cl)cc1O)N1CCC(CO)CC1 (stereo not drawn) [Compound 46, 4,5-dichloro-2-[1-[4-(hydroxymethyl)piperidin-1-yl]ethyl]phenol] | < 10 | – | –
